Source: patent US8802597B2, “Herbicidal pyrimidines” (E I du Pont de Nemours and Company, priority 2003, dated 2014)
Where two headings read alike, the source gives them in different places.

Experiments:
Type in all cases: in vivo
[1] = tested on: crabgrass (Digitaria sanguinalis); experiment: Test B pre/postemergence; settings: Digitaria sanguinalis; for pest or weed control at 125 g/ha: 125 g ai/ha; for pest or weed control at 500 g/ha: 500 g ai/ha
In short: (§1)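 Test chemicals in a non-phytotoxic solvent mixture with surfactant were applied preemergence to planted seeds and postemergence to plants 2 to 18 cm tall (1- to 4-leaf stage). After 13 to 15 days in a greenhouse, injury was visually rated against untreated controls on a 0 to 100 scale.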

[2] = tested on: cocklebur (Xanthium strumarium); experiment: Test B pre/postemergence; settings: Xanthium strumarium; for pest or weed control at 125 g/ha: 125 g ai/ha; for pest or weed control at 500 g/ha: 500 g ai/ha
In short: as §1

[3] = tested on: morningglory (Ipomoea coccinea); experiment: Test B pre/postemergence; settings: Ipomoea; for pest or weed control at 125 g/ha: 125 g ai/ha; for pest or weed control at 500 g/ha: 500 g ai/ha
In short: as §1

[4] = tested on: barnyardgrass (Echinochloa crus-galli); experiment: Test B pre/postemergence; settings: Echinochloa crus-galli; for pest or weed control at 125 g/ha: 125 g ai/ha; for pest or weed control at 500 g/ha: 500 g ai/ha
In short: as §1

[5] = tested on: Surinam grass (Brachiaria decumbens); experiment: Test B pre/postemergence; settings: Urochloa decumbens; for pest or weed control at 125 g/ha: 125 g ai/ha; for pest or weed control at 500 g/ha: 500 g ai/ha
In short: as §1

[6] = tested on: giant foxtail (Setaria faberii); experiment: Test B pre/postemergence; settings: Setaria faberi; for pest or weed control at 125 g/ha: 125 g ai/ha; for pest or weed control at 500 g/ha: 500 g ai/ha
In short: as §1

[7] = tested on: lambsquarters (Chenopodium album); experiment: Test B pre/postemergence; settings: Chenopodium album; for pest or weed control at 125 g/ha: 125 g ai/ha; for pest or weed control at 500 g/ha: 500 g ai/ha
In short: as §1

corn (Zea mays) = experiment: Test B pre/postemergence; settings: Zea mays
In short: as §1

[8] = tested on: wheat (Triticum aestivum); experiment: Test B pre/postemergence; settings: Triticum aestivum; for plant injury at 125 g/ha: 125 g ai/ha; for plant injury at 500 g/ha: 500 g ai/ha
In short: as §1

[9] = tested on: velvetleaf (Abutilon theophrasti); experiment: Test B pre/postemergence; settings: Abutilon theophrasti; for pest or weed control at 125 g/ha: 125 g ai/ha; for pest or weed control at 500 g/ha: 500 g ai/ha
In short: as §1

[10] = tested on: pigweed (Amaranthus retroflexus); experiment: Test B pre/postemergence; settings: Amaranthus retroflexus; for pest or weed control at 125 g/ha: 125 g ai/ha; for pest or weed control at 500 g/ha: 500 g ai/ha
In short: as §1

rice (Oryza sativa) = experiment: Test B flooded paddy test; settings: Oryza sativa, Flood, 1000 g ai/ha; scale 0 to 100; read-out: Plant response rating, Rice
In short: (§2)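 Plants were grown to the 2-leaf stage before treatment, then kept in a greenhouse for 13 to 15 days. Injury was rated visually against untreated controls on a 0 to 100 scale, where 0 is no effect and 100 is complete control.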

[11] = tested on: duck salad (Heteranthera limosa); experiment: Test B flooded paddy test; settings: Heteranthera limosa, Flood, 1000 g ai/ha; scale 0 to 100; read-out: Plant response rating, Ducksalad
In short: as §2

[12] = tested on: barnyardgrass (Echinochloa crus-galli); experiment: Test B flooded paddy test; settings: Echinochloa crus-galli, Flood, 1000 g ai/ha; scale 0 (no effect) to 100 (complete control); read-out: Plant response rating, Barnyardgrass
In short: as §2

[13] = tested on: umbrella sedge (Cyperus difformis); experiment: Test B flooded paddy test; settings: Cyperus difformis, Flood, 1000 g ai/ha; scale 0 to 100; read-out: Plant response rating, Sedge, Umbrella
In short: as §2

[14] = tested on: blackgrass (Alopecurus myosuroides); experiment: Test B postemergence; settings: Alopecurus myosuroides, post-emergence
In short: as §1

wild oat (Avena fatua) = experiment: Test B postemergence; settings: Avena fatua, post-emergence
In short: as §1

COC(=O)c1nc(-c2ccccc2)nc(N)c1Br [Compound 23]
pest or weed control at 125 g/ha ([1]; post-emergence, Postemergence, scale 0 to 100 (0 no effect, 100 complete control), read-out: Crabgrass plant response rating): 0%
pest or weed control at 500 g/ha ([1]; post-emergence, Postemergence, scale 0 to 100, read-out: Plant response rating, Crabgrass): 0%
pest or weed control at 125 g/ha ([1]; pre-emergence, Preemergence, scale 0 to 100 (0 no effect, 100 complete control), read-out: Plant response rating, Crabgrass): 0%
pest or weed control at 500 g/ha ([1]; pre-emergence, Preemergence, scale 0 to 100 (0 no effect, 100 complete control), read-out: Crabgrass plant response rating): 0%
pest or weed control at 125 g/ha ([2]; post-emergence, Postemergence, scale 0 to 100 (0 no effect, 100 complete control), read-out: Cocklebur plant response rating): 30%
pest or weed control at 500 g/ha ([2]; post-emergence, Postemergence, scale 0 to 100, read-out: Plant response rating, Cocklebur): 90%
pest or weed control at 125 g/ha ([2]; pre-emergence, Preemergence, scale 0 to 100 (0 no effect, 100 complete control), read-out: Plant response rating, Cocklebur): 0%
pest or weed control at 500 g/ha ([2]; pre-emergence, Preemergence, scale 0 to 100 (0 no effect, 100 complete control), read-out: Cocklebur plant response rating): 10%
pest or weed control at 125 g/ha ([3]; post-emergence, Postemergence, scale 0 to 100 (0 no effect, 100 complete control), read-out: Morningglory plant response rating): 40%
pest or weed control at 500 g/ha ([3]; post-emergence, Postemergence, scale 0 to 100, read-out: Plant response rating, Morningglory): 70%
pest or weed control at 125 g/ha ([3]; pre-emergence, Preemergence, scale 0 to 100 (0 no effect, 100 complete control), read-out: Plant response rating, Morningglory): 0%
pest or weed control at 500 g/ha ([3]; pre-emergence, Preemergence, scale 0 to 100 (0 no effect, 100 complete control), read-out: Morningglory plant response rating): 10%
pest or weed control at 125 g/ha ([4]; post-emergence, Postemergence, scale 0 to 100 (0 no effect, 100 complete control), read-out: Barnyardgrass plant response rating): 0%
pest or weed control at 500 g/ha ([4]; post-emergence, Postemergence, scale 0 to 100, read-out: Plant response rating, Barnyardgrass): 0%
pest or weed control at 125 g/ha ([4]; pre-emergence, Preemergence, scale 0 to 100 (0 no effect, 100 complete control), read-out: Plant response rating, Barnyardgrass): 0%
pest or weed control at 500 g/ha ([4]; pre-emergence, Preemergence, scale 0 to 100 (0 no effect, 100 complete control), read-out: Barnyardgrass plant response rating): 0%
pest or weed control at 125 g/ha ([5]; post-emergence, Postemergence, scale 0 to 100 (0 no effect, 100 complete control), read-out: Surinam Grass plant response rating): 0%
pest or weed control at 500 g/ha ([5]; post-emergence, Postemergence, scale 0 to 100, read-out: Plant response rating, Surinam Grass): 10%
pest or weed control at 125 g/ha ([5]; pre-emergence, Preemergence, scale 0 to 100 (0 no effect, 100 complete control), read-out: Plant response rating, Surinam Grass): 0%
pest or weed control at 500 g/ha ([5]; pre-emergence, Preemergence, scale 0 to 100 (0 no effect, 100 complete control), read-out: Surinam Grass plant response rating): 0%
pest or weed control at 125 g/ha ([6]; post-emergence, Postemergence, scale 0 to 100 (0 no effect, 100 complete control), read-out: Foxtail, Giant plant response rating): 0%
pest or weed control at 500 g/ha ([6]; post-emergence, Postemergence, scale 0 to 100, read-out: Plant response rating, Foxtail, Giant): 10%
pest or weed control at 125 g/ha ([6]; pre-emergence, Preemergence, scale 0 to 100 (0 no effect, 100 complete control), read-out: Plant response rating, Foxtail, Giant): 0%
pest or weed control at 500 g/ha ([6]; pre-emergence, Preemergence, scale 0 to 100 (0 no effect, 100 complete control), read-out: Foxtail, Giant plant response rating): 0%
pest or weed control at 125 g/ha ([7]; post-emergence, Postemergence, scale 0 to 100 (0 no effect, 100 complete control), read-out: Lambsquarters plant response rating): 70%
pest or weed control at 500 g/ha ([7]; post-emergence, Postemergence, scale 0 to 100, read-out: Plant response rating, Lambsquarters): 80%
pest or weed control at 125 g/ha ([7]; pre-emergence, Preemergence, scale 0 to 100 (0 no effect, 100 complete control), read-out: Plant response rating, Lambsquarters): 0%
pest or weed control at 500 g/ha ([7]; pre-emergence, Preemergence, scale 0 to 100 (0 no effect, 100 complete control), read-out: Lambsquarters plant response rating): 30%
plant injury at 125 g/ha (corn (Zea mays); post-emergence, Postemergence, 125 g ai/ha, scale 0 to 100 (0 no effect, 100 complete control), read-out: Corn plant response rating): 0%
Corn plant response rating (crop injury, 0 = no effect, 100 = complete kill) at 500 g/ha (corn (Zea mays); post-emergence, Postemergence, 500 g ai/ha, scale 0 to 100): 0%
Corn plant response rating (crop injury, 0 = no effect, 100 = complete kill) at 125 g/ha (corn (Zea mays); pre-emergence, Preemergence, 125 g ai/ha, scale 0 to 100 (0 no effect, 100 complete control)): 0%
plant injury at 500 g/ha (corn (Zea mays); pre-emergence, Preemergence, 500 g ai/ha, scale 0 to 100 (0 no effect, 100 complete control), read-out: Corn plant response rating): 0%
plant injury at 125 g/ha ([8]; post-emergence, Postemergence, scale 0 to 100 (0 no effect, 100 complete control), read-out: Wheat plant response rating): 0%
plant injury at 500 g/ha ([8]; post-emergence, Postemergence, scale 0 to 100, read-out: Plant response rating, Wheat): 20%
plant injury at 125 g/ha ([8]; pre-emergence, Preemergence, scale 0 to 100 (0 no effect, 100 complete control), read-out: Plant response rating, Wheat): 0%
plant injury at 500 g/ha ([8]; pre-emergence, Preemergence, scale 0 to 100 (0 no effect, 100 complete control), read-out: Wheat plant response rating): 0%
pest or weed control at 125 g/ha ([9]; post-emergence, Postemergence, scale 0 to 100 (0 no effect, 100 complete control), read-out: Velvetleaf plant response rating): 40%
pest or weed control at 500 g/ha ([9]; post-emergence, Postemergence, scale 0 to 100, read-out: Plant response rating, Velvetleaf): 70%
pest or weed control at 125 g/ha ([9]; pre-emergence, Preemergence, scale 0 to 100 (0 no effect, 100 complete control), read-out: Plant response rating, Velvetleaf): 0%
pest or weed control at 500 g/ha ([9]; pre-emergence, Preemergence, scale 0 to 100 (0 no effect, 100 complete control), read-out: Velvetleaf plant response rating): 20%
pest or weed control at 125 g/ha ([10]; post-emergence, Postemergence, scale 0 to 100 (0 no effect, 100 complete control), read-out: Pigweed plant response rating): 30%
pest or weed control at 500 g/ha ([10]; post-emergence, Postemergence, scale 0 to 100, read-out: Plant response rating, Pigweed): 70%
pest or weed control at 125 g/ha ([10]; pre-emergence, Preemergence, scale 0 to 100 (0 no effect, 100 complete control), read-out: Plant response rating, Pigweed): 0%
pest or weed control at 500 g/ha ([10]; pre-emergence, Preemergence, scale 0 to 100 (0 no effect, 100 complete control), read-out: Pigweed plant response rating): 20%
plant injury at 1000 g/ha (rice (Oryza sativa)): 0%
pest or weed control at 1000 g/ha [11]: 30%
pest or weed control at 1000 g/ha [12]: 0%
pest or weed control at 1000 g/ha [13]: 0%
pest or weed control at 125 g/ha ([14]; 125 g ai/ha, scale 0 to 100 (0 no effect, 100 complete control), read-out: Blackgrass plant response rating): 0%
pest or weed control at 500 g/ha ([14]; 500 g ai/ha, scale 0 to 100, read-out: Plant response rating, Blackgrass): 10%
pest or weed control at 125 g/ha (wild oat (Avena fatua); 125 g ai/ha, scale 0 to 100 (0 no effect, 100 complete control), read-out: Oat, Wild plant response rating): 10%
pest or weed control at 500 g/ha (wild oat (Avena fatua); 500 g ai/ha, scale 0 to 100, read-out: Plant response rating, Oat, Wild): 10%
